Each block holds one compound with its values, some of them ahead of it.
What was measured:
Format in all cases: cell-based
hTAS2R43 = biological target: T1, hTAS2R43 (Homo sapiens, UniProt P59537); experiment: calcium flux in transfected HEK-293T cells (with Gα[…]gust44), […] aloin
T1 construct: gene TAS2R43; W35/H212 variant; first 45 amino acids of the rat somatostatin type 3 receptor fused for cell-surface targeting
T1 sequence (P59537 1-309): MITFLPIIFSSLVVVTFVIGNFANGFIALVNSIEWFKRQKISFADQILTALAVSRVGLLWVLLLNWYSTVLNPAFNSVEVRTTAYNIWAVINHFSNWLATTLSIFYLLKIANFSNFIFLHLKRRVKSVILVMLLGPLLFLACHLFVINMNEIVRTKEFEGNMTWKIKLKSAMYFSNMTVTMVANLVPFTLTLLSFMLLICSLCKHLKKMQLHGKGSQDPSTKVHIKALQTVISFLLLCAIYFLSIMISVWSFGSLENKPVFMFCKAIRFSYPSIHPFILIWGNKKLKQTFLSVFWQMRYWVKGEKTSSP

hTAS2R16 [1] = biological target: T2, hTAS2R16 (Homo sapiens, UniProt Q9NYV7, R222H); experiment: calcium flux agonist dose-response in transfected HEK-293T cells (with Gα[…]gust44)
T2 construct: gene TAS2R16
T2 sequence (Q9NYV7 1-291 R222H): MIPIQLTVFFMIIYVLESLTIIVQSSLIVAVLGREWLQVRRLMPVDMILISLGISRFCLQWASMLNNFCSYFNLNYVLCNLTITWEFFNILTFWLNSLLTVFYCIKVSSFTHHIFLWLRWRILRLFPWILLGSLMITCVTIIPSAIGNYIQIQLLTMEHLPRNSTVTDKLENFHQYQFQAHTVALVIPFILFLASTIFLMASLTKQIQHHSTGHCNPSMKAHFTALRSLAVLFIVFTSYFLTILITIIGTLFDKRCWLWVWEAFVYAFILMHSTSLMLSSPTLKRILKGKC

hTAS2R16 [2] = biological target: T2, hTAS2R16; experiment: calcium flux in transfected HEK-293T cells (with Gα[…]gust44), inhibition of […] salicin response; dose-response and mutant analysis
hTAS2R38 = biological target: T3, hTAS2R38 (Homo sapiens, UniProt P59533, A49P/I296V); experiment: calcium flux in transfected HEK-293T cells (with Gα[…]gust44), inhibition of […] PTC response
T3 construct: gene TAS2R38; PAV variant; first 45 amino acids of the rat somatostatin type 3 receptor fused for cell-surface targeting
T3 sequence (P59533 whole entry A49P/I296V, the tested form may be a part): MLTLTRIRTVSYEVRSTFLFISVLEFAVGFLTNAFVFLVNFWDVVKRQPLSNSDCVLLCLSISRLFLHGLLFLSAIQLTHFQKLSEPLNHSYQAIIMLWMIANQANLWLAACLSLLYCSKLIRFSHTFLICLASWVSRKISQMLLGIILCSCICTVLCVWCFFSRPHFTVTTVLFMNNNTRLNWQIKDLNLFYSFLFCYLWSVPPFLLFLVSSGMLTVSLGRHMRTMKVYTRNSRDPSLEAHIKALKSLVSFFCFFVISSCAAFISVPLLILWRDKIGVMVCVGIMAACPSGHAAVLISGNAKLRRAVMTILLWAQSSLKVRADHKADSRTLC

SMILES: O=C1c2c(O)cccc2C([C@@H]2O[C@H](CO)[C@@H](O)[C@H](O)[C@H]2O)c2cc(CO)cc(O)c21 (stereo partly shown) [aloin]
calcium flux in transfected HEK-293T cells (with Gα16gust44), 3 mM aloin (hTAS2R43): Aloin induced an increase in intracellular calcium in HEK-293T cells expressing hTAS2R43

EC50 (hTAS2R16 [1]): ~1.2 mM
SMILES: OCc1ccccc1O[C@@H]1O[C@H](CO)[C@@H](O)[C@H](O)[C@H]1O [salicin]

IC50 (hTAS2R16 [2]): 292 µM | IC50 (hTAS2R38): 211 µM
SMILES: CCCN(CCC)S(=O)(=O)c1ccc(C(=O)O)cc1 [probenecid, p-(dipropylsulfamoyl)benzoic acid]

Source: paper PMC3101243, “Probenecid Inhibits the Human Bitter Taste Receptor TAS2R16 and Suppresses Bitter Perception of Salicin” (PLoS ONE, 2011)
